US12098119B2, “Compound used as SIRT6 small-molecule allosteric activator and pharmaceutical composition thereof” (Nutshell BioTech (Shanghai) Co., Ltd., priority 2017, dated 2024)

Tests used:
Format in all cases: cell-based
[1] = tested on: H3K9Ac and H3K56Ac in HCT116 cells; assay: Western blot of SIRT6 deacetylation substrates in HCT116 cells
Text: (§1) A Western Blot experimental method is used to detect the effect of SIRT6 small molecule allosteric activator as active ingredients in Table 1 and Table 2 for SIRT6 deacetylated active substrates H3K9 AC and H3K56 AC in cell cells.
(§2) HEK-293 T cells, Bel7405 cells, PLC/PFR/5 cells, Bel 7402 cells, HCT116 cells, HT29 cells, SW 480 cells, and HCT116 cells are test objects.
(§3) Step 1: the compound mother liquor (solvent is DMSO) listed in Table 1 and Table 2, the gradient concentration comprising 0.5 μmol/L, 1 μmol/L, 5 μmol/L, 10 μmol/L, 25 μmol/L and 50 μmol/L;
(§4) Step 3: the cell state was good after 24 hours, the fresh culture solution (2 mL) was replaced, and the mother liquor configured above is added to the cell culture solution of the experimental group according to the ratio of 1:1000; the same volume of DMSO (2 ul) is added to the cell culture solution of the control group;
(§5) Step 4: continue to culture for a certain time (12 hours, 24 hours, 48 hours or 60 hours).
(§6) 1) for each group of cells at the end of culture, the culture medium in each well is discarded and washed with 1*PBS once;
(§7) 2) add 150 μl SDS lysate containing bromophenol blue into each well, mix well and transfer to 1.5 ml EP tube respectively;
(§8) 3) store at 95° C. for 5 min, then on ice for 5 min, repeat three times;
(§9) 4) the supernatant is centrifuged at 12000×g for 5 min for Western blot detection.

[2] = tested on: H3K9Ac and H3K56Ac in HT29 cells; assay: Western blot of SIRT6 deacetylation substrates in HT29 cells
Text: as §1, §2, §3, §4, §5, §6, §7, §8, §9

[3] = tested on: H3K9Ac and H3K56Ac in SW480 cells; assay: Western blot of SIRT6 deacetylation substrates in SW480 cells
Text: as §1, §2, §3, §4, §5, §6, §7, §8, §9

Compound: C[C@@H]1COCCN1C(C)(C)C [SOL-011]
- H3K9Ac and H3K56Ac (Western blot) ([1]; CT116 cells, different concentrations, 48 hours, FIG. 45): down regulated H3K9Ac and h3k56ac
- H3K9Ac and H3K56Ac (Western blot) ([1]; HCT116 cells, 10 μmol/L, 24 hours and 48 hours, FIG. 42): down regulated H3K9Ac and H3k56ac
- H3K9Ac and H3K56Ac (Western blot) ([2]; 10 μmol/L, 24 hours and 48 hours, FIG. 43): down regulated H3K9Ac and H3k56ac
- H3K9Ac and H3K56Ac (Western blot) ([2]; different concentrations, 48 hours, FIG. 46): down regulated H3K9Ac and H3k56ac
- H3K9Ac and H3K56Ac (Western blot) ([3]; 10 μmol/L, 24 hours and 48 hours, FIG. 44): can down regulate H3K9Ac and H3k56ac
- H3K9Ac and H3K56Ac (Western blot) ([3]; different concentrations, 48 hours, FIG. 47): down regulated H3K9Ac and H3k56ac
